The results in this text go back to the Kinase Knowledgebase extract (Sharma et al. 2016).

The assay addresses CDK2 (human) (UniProt P24941). Kind of assay: Enzyme Assay.
For `CN(C)NC(=O)Nc1c[nH]nc1-c1nc2cc(CN3CCOCC3)ccc2[nH]1`, the IC50 (as a rule, the concentration that gives 50% inhibition) is less than 1 µM.

`O=C(Nc1c[nH]nc1-c1nc2cc(CN3CCOCC3)ccc2[nH]1)NN1CCOCC1`: the IC50 was less than 1 µM.

In turn, `COc1ccc(C#N)cc1C(=O)Nc1c[nH]nc1-c1nc2cc(CN3CCOCC3)ccc2[nH]1` displayed an IC50 of less than 1 µM. To `O=C(Nc1c[nH]nc1-c1nc2cc(CN3CCOCC3)ccc2[nH]1)Nc1c(F)cc(F)cc1F` belongs less than 1 µM; to `COc1cc2nc(-c3n[nH]cc3NC(=O)c3cc(Cl)cc(N4CCN(C)CC4)c3)[nH]c2cc1OC`, less than 1 µM.

Consider `O=C(CC1CC1)Nc1c[nH]nc1-c1nc2cc(CN3CCOCC3)ccc2[nH]1`, for which the IC50 is less than 1 µM. To `O=C(Nc1c[nH]nc1-c1nc2cc(CN3CCOCC3)ccc2[nH]1)NN1CCCC1` belongs less than 1 µM; to `O=C(Nc1cc(F)ccc1F)Nc1c[nH]nc1-c1nc2cc(CN3CCOCC3)ccc2[nH]1`, less than 1 µM; to `COc1ccc(Cl)cc1C(=O)Nc1c[nH]nc1-c1nc2cc(CN3CCN(C)CC3)ccc2[nH]1`, less than 1 µM.

In the case of `O=C(Nc1ccc(F)cc1F)Nc1c[nH]nc1-c1nc2cc(CN3CCOCC3)ccc2[nH]1`, the IC50 is less than 1 µM. For the compound `O=C(Nc1c[nH]nc1-c1nc2cc(CN3CCOCC3)ccc2[nH]1)C1CCCO1` (configuration not stated), the half-maximal inhibitory concentration (IC50) was less than 1 µM.

`COc1cc2nc(-c3n[nH]cc3NC(=O)c3ccoc3CN(C)C)[nH]c2cc1OC` gave an IC50 of less than 1 µM.
